What was measured:
[1] = system: AKT; assay: AKT activation: Phospho-AKT (Ser473) antibody staining in reporter cells; type: cell-based; details: Homo sapiens, U2OS, 0.5 h, U2OS GFP-FoxO3a H212R cells, serum starved overnight, compound 30 minutes; total cellular intensity of Phospho-AKT (Ser473) staining; DMSO control 0%
Experimental: (§1) Phosphorylation of AKT on S473 and FoxO3a nuclear to cytoplasmic translocation were used as readouts of PI3K/Akt/mTOR pathway activation downstream of growth factor signaling.
(§2) Reporter cell line. U2OS GFP-FoxO3a H212R reporter cell line was established by transducing U2OS cells with the retroviral plasmid pLEGFP-C1 containing FoxO3a H212R transgene and selecting for G418 resistant clones.
(§3) Reporter assay. U2OS GFP-FoxO3a H212R cells were plated in 384-well plates at 4000 cells per well in 30 microliters of McCoy's 5 A medium containing 10% FBS. On day 1 the cells were washed with serum free medium and serum starved overnight. On day 2 the cells were treated with different doses of the compounds for 30 minutes, fixed with 4% Paraformaldehyde for 1 hour and stained with Phospho-AKT (Ser473) antibody (Cell Signaling Technology, catalog #4060) overnight at 4 degrees Celsius. After nuclei staining with Hoechst 33342 (Life Technologies, catalog # H3570) the plates were imaged with InCell 2000 (GE Healthcare Bio-Sciences). FoxO3a inhibition activity is calculated as the ratio of nuclear to cytosolic GFP intensity in percent. AKT activation is measured as the total cellular intensity of Phospho-AKT antibody staining in percent. DMSO control is set as 0% activity.

[2] = system: FoxO3a; assay: FoxO3a inhibition: GFP-FoxO3a nuclear to cytoplasmic translocation reporter assay; type: cell-based; details: Homo sapiens, U2OS, 0.5 h, U2OS GFP-FoxO3a H212R cells, serum starved overnight, compound 30 minutes; ratio of nuclear to cytosolic GFP intensity; DMSO control 0%; read-out: FoxO AC50
Experimental: as §1, §2, §3

Row | SMILES | AC50 [1] | AC50 [2]
1 | Cc1cc(C(N)=O)nn1-c1ccc2c(ccn2Cc2ccc(-c3cnc(N)nc3)cc2)c1 [Example 1-29, 1-(1-(4-(2-aminopyrimidin-5-yl)benzyl)-1H-indol-5-yl)-5-methyl-1H-pyrazole-3-carboxamide] | 0.774 µM | 0.34 µM
2 | COc1ccc(-c2ccc(Cn3ccc4cc(-n5nc(C(N)=O)cc5C)ccc43)cc2)cc1 [Example 1-30, 1-(1-((4′-methoxy-[1,1′-biphenyl]-4-yl)methyl)-1H-indol-5-yl)-5-methyl-1H-pyrazole-3-carboxamide] | 0.952 µM | 0.216 µM
3 | Cc1cc(C(N)=O)nn1-c1ccc2c(ccn2Cc2ccc(-c3ccc4c(c3)CC(=O)N4)cc2)c1 [Example 1-31, 5-methyl-1-(1-(4-(2-oxoindolin-5-yl)benzyl)-1H-indol-5-yl)-1H-pyrazole-3-carboxamide] | 0.138 µM | 0.055 µM
4 | Cc1cc(C(N)=O)nn1-c1ccc2c(ccn2Cc2ccc(-c3ccc(CO)cc3)cc2)c1 [Example 1-32, 1-(1-((4′-(hydroxymethyl)-[1,1′-biphenyl]-4-yl)methyl)-1H-indol-5-yl)-5-methyl-1H-pyrazole-3-carboxamide] | 0.578 µM | 0.205 µM
5 | Cc1cc(C(N)=O)nn1-c1ccc2c(ccn2Cc2ccc(-c3ccc(NS(C)(=O)=O)cc3)cc2)c1 [Example 1-33, 5-methyl-1-(1-((4′-(methylsulfonamido)-[1,1′-biphenyl]-4-yl)methyl)-1H-indol-5-yl)-1H-pyrazole-3-carboxamide] | 0.351 µM | 0.082 µM
6 | Cc1cc(C(N)=O)nn1-c1ccc2c(ccn2Cc2ccc(-c3ccc(CN)cc3)cc2)c1 [Example 1-34, 1-(1-((4′-(aminomethyl)-[1,1′-biphenyl]-4-yl)methyl)-1H-indol-5-yl)-5-methyl-1H-pyrazole-3-carboxamide] | 0.743 µM | 0.248 µM
7 | Cc1cc(C(N)=O)nn1-c1ccc2c(ccn2Cc2ccc(-c3ccc(C(=O)N(C)C)cc3)cc2)c1 [Example 1-35, 1-(1-((4′-(dimethylcarbamoyl)-[1,1′-biphenyl]-4-yl)methyl)-1H-indol-5-yl)-5-methyl-1H-pyrazole-3-carboxamide] | 0.217 µM | 0.06 µM
8 | Cc1cc(C(N)=O)nn1-c1ccc2c(ccn2Cc2ccc(-c3cnc(N(C)C)nc3)cc2)c1 [Example 1-36, 1-(1-(4-(2-(dimethylamino)pyrimidin-5-yl)benzyl)-1H-indol-5-yl)-5-methyl-1H-pyrazole-3-carboxamide] | 1.05 µM | 0.477 µM
9 | Cc1cc(C(N)=O)nn1-c1ccc2c(ccn2Cc2ccc(-c3ccc(CN4CCOCC4)cc3)cc2)c1 [Example 1-37, 5-methyl-1-(1-((4′-(morpholinomethyl)-[1,1′-biphenyl]-4-yl)methyl)-1H-indol-5-yl)-1H-pyrazole-3-carboxamide] | 0.206 µM | 0.075 µM
10 | Cc1cc(C(N)=O)nn1-c1ccc2c(ccn2Cc2ccc(-c3ccc(C(=O)NCCN4CCOCC4)cc3)cc2)c1 [Example 1-38, 5-methyl-1-(1-((4′-((2-morpholinoethyl)carbamoyl)-[1,1′-biphenyl]-4-yl)methyl)-1H-indol-5-yl)-1H-pyrazole-3-carboxamide] | 0.24 µM | 0.078 µM
11 | Cc1cc(C(N)=O)nn1-c1ccc2c(ccn2Cc2ccc(C3CCCNC3)cc2)c1 (centres unmarked) [Example 2-4, 5-methyl-1-(1-(4-(piperidin-3-yl)benzyl)-1H-indol-5-yl)-1H-pyrazole-3-carboxamide] | 1.63 µM | 0.429 µM
12 | Cc1cc(C(N)=O)nn1-c1ccc2c(ccn2Cc2ccc(C3CCN(C)CC3)cc2)c1 [Example 2-5, 5-methyl-1-(1-(4-(1-methylpiperidin-4-yl)benzyl)-1H-indol-5-yl)-1H-pyrazole-3-carboxamide] | 0.76 µM | 0.281 µM
13 | Cc1cc(C(N)=O)nn1-c1ccc2c(ccn2Cc2ccc(C3=CCNCC3)cc2)c1 [Example 3, 5-methyl-1-(1-(4-(1,2,3,6-tetrahydropyridin-4-yl)benzyl)-1H-indol-5-yl)-1H-pyrazole-3-carboxamide] | 1.17 µM | 0.476 µM
14 | Cc1cc(C(N)=O)nn1-c1ccc2c(ccn2Cc2ccc(C3=CCN(S(C)(=O)=O)CC3)cc2)c1 [Example 4, 5-methyl-1-(1-(4-(1-(methylsulfonyl)-1,2,3,6-tetrahydropyridin-4-yl)benzyl)-1H-indol-5-yl)-1H-pyrazole-3-carboxamide] | 0.306 µM | 0.109 µM
15 | Cc1cc(C(N)=O)nn1-c1ccc2c(ccn2Cc2ccc(C3=CCN(C(=O)CCCN(C)C)CC3)cc2)c1 [Example 10] | 0.512 µM | 0.189 µM
16 | Cc1cc(C(N)=O)nn1-c1ccc2c(ccn2Cc2ccc(N3CCNCC3)cc2)c1 [Example 11-1, 5-methyl-1-(1-(4-(piperazin-1-yl)benzyl)-1H-indol-5-yl)-1H-pyrazole-3-carboxamide] | > 10 µM | 4.08 µM
17 | Cc1cc(C(N)=O)nn1-c1ccc2c(ccn2Cc2ccc(N3CCN(C)CC3)cc2)c1 [Example 11-2, 5-methyl-1-(1-(4-(4-methylpiperazin-1-yl)benzyl)-1H-indol-5-yl)-1H-pyrazole-3-carboxamide] | 1.06 µM | 0.341 µM
18 | Cc1cc(C(N)=O)nn1-c1ccc2c(ccn2Cc2ccc(N3CC4CN(C)CC4C3)cc2)c1 (centres unmarked) [Example 11-3, 5-methyl-1-(1-(4-(5-methylhexahydropyrrolo[3,4-c]pyrrol-2(1H)-yl)benzyl)-1H-indol-5-yl)-1H-pyrazole-3-carboxamide] | 2.97 µM | 1.16 µM
19 | Cc1cc(C(N)=O)nn1-c1ccc2c(ccn2Cc2ccc(C#CCN(C)C)cc2)c1 [Example 12, 1-(1-(4-(3-(dimethylamino)prop-1-yn-1-yl)benzyl)-1H-indol-5-yl)-5-methyl-1H-pyrazole-3-carboxamide] | 1.19 µM | 0.402 µM
20 | Cc1cc(C(N)=O)nn1-c1ccc2c(ccn2Cc2ccc(C3=CCN(C)C(C)(C)C3)cc2)c1 [Example 15-1, 5-methyl-1-(1-(4-(1,2,2-trimethyl-1,2,3,6-tetrahydropyridin-4-yl)benzyl)-1H-indol-5-yl)-1H-pyrazole-3-carboxamide] | 0.391 µM | 0.242 µM
21 | Cc1cc(C(N)=O)nn1-c1ccc2c(ccn2Cc2ccc(C3=CCN(C)CC3(C)C)cc2)c1 [Example 15-2, 5-methyl-1-(1-(4-(1,3,3-trimethyl-1,2,3,6-tetrahydropyridin-4-yl)benzyl)-1H-indol-5-yl)-1H-pyrazole-3-carboxamide] | 0.389 µM | 0.197 µM
22 | Cc1cc(C(N)=O)nn1-c1ccc2c(ccn2Cc2ccc(C3=CCC4(CC3)CN(C)C4)cc2)c1 [Example 15-3, 5-methyl-1-(1-(4-(2-methyl-2-azaspiro[3.5]non-6-en-7-yl)benzyl)-1H-indol-5-yl)-1H-pyrazole-3-carboxamide] | 0.398 µM | 0.096 µM
23 | Cc1cc(C(N)=O)nn1-c1ccc2c(ccn2Cc2ccc(C3CCN(C)CC3(C)C)cc2)c1 (centres unmarked) [Example 16-1, 5-methyl-1-(1-(4-(1,3,3-trimethylpiperidin-4-yl)benzyl)-1H-indol-5-yl)-1H-pyrazole-3-carboxamide] | 0.966 µM | 0.171 µM
24 | Cc1cc(C(N)=O)nn1-c1ccc2c(ccn2Cc2ccc(C3CCC4(CC3)CN(C)C4)cc2)c1 [Example 16-4, 5-methyl-1-(1-(4-(2-methyl-2-azaspiro[3.5]nonan-7-yl)benzyl)-1H-indol-5-yl)-1H-pyrazole-3-carboxamide] | 0.756 µM | 0.186 µM
25 | Cc1cc(C(N)=O)nn1-c1ccc2c(ccn2Cc2ccc(C3=CCN(C)CC3C)cc2)c1 (centres unmarked) [Example 17-1, 1-(1-(4-(1,3-dimethyl-1,2,3,6-tetrahydropyridin-4-yl)benzyl)-1H-indol-5-yl)-5-methyl-1H-pyrazole-3-carboxamide] | 0.46 µM | 0.102 µM
26 | Cc1cc(C(N)=O)nn1-c1ccc2c(ccn2Cc2ccc(-c3ccc(S(=O)(=O)CCO)cc3)cc2)c1 [Example 18, 1-(1-((4′-((2-hydroxyethyl)sulfonyl)-[1,1′-biphenyl]-4-yl)methyl)-1H-indol-5-yl)-5-methyl-1H-pyrazole-3-carboxamide] | 0.11 µM | 0.057 µM
27 | Cc1cc(C(N)=O)nn1-c1ccc2c(ccn2Cc2ccc(-c3ccc(S(=O)(=O)CCN4CCN(C)CC4)cc3)cc2)c1 [Example 19, 5-methyl-1-(1-((4′-((2-(4-methylpiperazin-1-yl)ethyl)sulfonyl)-[1,1′-biphenyl]-4-yl)methyl)-1H-indol-5-yl)-1H-pyrazole-3-carboxamide] | 0.142 µM | 0.061 µM
28 | Cc1cc(C(N)=O)nn1-c1ccc2c(c1)c(C1=CCOCC1)cn2Cc1ccc(-c2ccc(S(C)(=O)=O)cc2)cc1 [Example 19-1, 1-(3-(3,6-dihydro-2H-pyran-4-yl)-1-((4′-(methylsulfonyl)-[1,1′-biphenyl]-4-yl)methyl)-1H-indol-5-yl)-5-methyl-1H-pyrazole-3-carboxamide] | 0.081 µM | 0.052 µM

— patent US10654828B2 (NOVARTIS AG, priority 2017, dated 2020)
